The target of the assay is T1, KRAS G12C 1-169, his-tagged protein, GDP-loaded (Homo sapiens, UniProt P01116, G12C).
T1 construct: KRAS G12C 1-169, his-tagged protein, GDP-loaded; His tag
Put plainly: Biochemical assay: covalent binding to KRAS G12C measured by mass spectrometry (RapidFire/TOF or Q-Exactive). Particulars: covalent binding to KRAS G12C after a thirty minute incubation period. Here is the method: Test compounds were prepared as 10 mM stock solutions in DMSO (Fisher cat #BP-231-100). KRAS G12C 1-169, his-tagged protein, GDP-loaded was diluted to 0.5 μM in buffer (20 mM Hepes, 150 mM NaCl, 1 mM MgCl2). Compounds were tested for activity as follows:
Compounds were diluted to 50× final test concentration in DMSO in 96-well storage plates. Compound stock solutions were vortexed before use and observed carefully for any sign of precipitation. Dilutions were as follow: • For 100 μM final compound concentration, compounds were diluted to 5000 μM (5 μL 10 mM compound stock+5 μL DMSO and mixed well by pipetting. • For 30 μM final compound concentration, compounds were diluted to 1500 μM (3 μL 10 mM compound stock+17 μL DMSO) and mixed well by pipetting. • For 10 μM final compound concentration, compounds were diluted to 500 μM (2 μL 10 mM compound stock+38 μL DMSO) and mixed well by pipetting. 49 μL of the stock protein solution was added to each well of a 96-well PCR plate (Fisher cat #1423027). 1 μl of the diluted 50× compounds were added to appropriate wells in the PCR plate using 12-channel pipettor. Reactions were mixed carefully and thoroughly by pipetting up/down with a 200 μL multi-channel pipettor. The plate was sealed well with aluminum plate seal, and stored in drawer at room temperature for 10 minutes, 30 minutes, 2 hours or 24 hours. 5 μL of 2% formic acid (Fisher cat #A117) in de-ionized H2O was then added to each well followed by mixing with a pipette. The plate was then resealed with aluminum seal and stored on dry ice until analyzed as described below.
The above described assays were analyzed by mass spectrometry according to one of the following two procedures:
The MS instrument is set to positive polarity, 2 GHz resolution, and low mass (1700) mode and allowed to equilibrate for 30 minutes. The instrument is then calibrated, switched to acquisition mode and the appropriate method loaded.
After another 30 minute equilibration time, a blank batch (i.e., buffer) is run to ensure equipment is operating properly. The samples are thawed at 37° C. for 10 minutes, briefly centrifuged, and transfer to the bench top. Wells A1 and H12 are spiked with 1 μL 500 μM internal standard peptide, and the plates centrifuged at 2000×g for 5 minutes. The method is then run and masses of each individual well recorded.
The masses (for which integration data is desired) for each well are pasted into the platemap and exported from the analysis. Masses for the internal standards are exported as well. The data at 50 ppm is extracted for the +19 charge state, and identity of well A1 is assigned using the internal standard spike and integrated. Peak data is exported as a TOF list and the above steps are repeated individually, for the +20, 21, 22, 23, 24, and 25 charge states.
The masses and peak intensities of KRAS G12C protein species were measured using a Dionex RSLCnano system (Thermo Scientific) connected to a Q Exactive Plus mass spectrometer (Thermo Scientific).
[…] of sample was each loaded onto a Aeris™ 3.6 μm WIDEPORE C4 200 Å, LC Column 50×2.1 mm column maintained at 40° C. at a flow rate of 600 μL/min with 20% Solvent A (0.1% formic acid in H2O) and 80% Solvent B (0.1% formic acid in acetonitrile). The liquid chromatography conditions were 20% solvent B for 1 minute, 20% to 60% solvent B for 1.5 minutes, 60% to 90% solvent for 0.5 minute, 90% solvent B for 0.2 minute, 90% to 20% solvent B for 0.2 minute, and then equilibrated for 1.6 minute before the following sample injection. The flow rate was maintained at 600 μL/min throughout the sample analysis.
The mass spectrometer was operated in profile mode at a resolution of 17500, 5 microscans, using 50 msec max injection time and an AGC target of 1×10^6, and a full mass range from 800-1850 m/z was recorded. The HCD trapping gas was optimized for maximum sensitivity for intact proteins. […]

Each structure is given as a SMILES string.

Take `C=CC(=O)N1CC(c2nc3ccc(-c4c(C)ccc5[nH]ncc45)cc3c(=O)n2CCCN(C)C)C1` [Compound 5, 2-(1-acryloylazetidin-3-yl)-3-(3-(dimethylamino)propyl)-6-(5-methyl-1H-indazol-4-yl)quinazolin-4(3H)-one]: the Binding % entry was “++ (++ indicates binding activity from 10 to 50%)”.
The value for `C=CC(=O)N1CC(c2nc(NCCc3ncccn3)c3cc(-c4c(C)ccc5[nH]ncc45)ccc3n2)C1` [Compound 33, 1-(3-(6-(5-methyl-1H-indazol-4-yl)-4-((2-(pyrimidin-2-yl)ethyl)amino)quin-azolin-2-yl)azetidin-1-yl)prop-2-en-1-one] was “+ (+ indicates binding activity up to 10%)”; that for `C=CC(=O)N1CC(c2nc3ccc(-c4cc(O)cc5ccccc45)cc3c(=O)[nH]2)C1` [Compound 1, 2-(1-acryloylazetidin-3-yl)-6-(3-hydroxynaphthalen-1-yl)quinazolin-4(3H)-one] was “++ (++ indicates binding activity from 10 to 50%)”.
For `C=CC(=O)N1CC(c2nc3ccc(-c4cccc5[nH]nc(I)c45)cc3c(=O)n2CCCN(C)C)C1` [Compound 6, 2-(1-acryloylazetidin-3-yl)-3-(3-(dimeth-ylamino)propyl)-6-(3-iodo-1H-indazol-4-yl)quinazolin-4(3H)-one], the Binding % result is “+ (+ indicates binding activity up to 10%)”.
The value for `C=CC(=O)N1CC(c2nc(-n3ccnc3)c3cc(-c4cc(O)cc5ccccc45)ccc3n2)C1` [Compound 30, 1-(3-(6-(3-hydroxynaphthalen-1-yl)-4-(1H-imidazol-1-yl)quinazolin-2-yl)azetidin-1-yl)prop-2-en-1-one] was “+ (+ indicates binding activity up to 10%)”.
Turning to `C=CC(=O)N1CC(Cc2nc3ccc(-c4cc(O)cc5ccccc45)cc3c(=O)n2CCCN(C)C)C1` [Compound 27, 2-((1-acryloylazetidin-3-yl)methyl)-3-(3-(dimethylamino)propyl)-6-(3-hydroxynaphthalen-1-yl)quinazolin-4(3H)-one], the Binding % entry is given as “+ (+ indicates binding activity up to 10%)”.
Take `C=CC(=O)N1CC(c2nc(NCC(=O)N3CC(N(C)C)C3)c3cc(-c4cc(O)cc5ccccc45)ccc3n2)C1` [Compound 21, 1-(3-(4-((2-(3-(dimethylamino)azetidin-1-yl)-2-oxoethyl)amino)-6-(3-hydroxynaphthalen-1-yl)quinazolin-2-yl)azetidin-1-yl)prop-2-en-1-one]: the Binding % result was “+ (+ indicates binding activity up to 10%)”.
Turning to `C=CC(=O)N1CC(c2nc(NC3CCN(C4CC4)CC3)c3cc(-c4c(C)ccc5[nH]ncc45)ccc3n2)C1` [Compound 31, 1-(3-(4-((1-cyclopropylpiperi-din-4-yl)amino)-6-(5-methyl-1H-indazol-4-yl)quinazolin-2-yl)azetidin-1-yl)prop-2-en-1-one], the Binding % entry is reported as “+ (+ indicates binding activity up to 10%)”.
The value for `C=CC(=O)N1CC(c2nc(N3CCC(O)C3)c3cc(-c4cc(O)cc5ccccc45)ccc3n2)C1` (centres unmarked) [Compound 34, 1-(3-(6-(3-hydroxynaphthalen-1-yl)-4-(3-hydroxypyrrolidin-1-yl)quinazolin-2-yl)azetidin-1-yl)prop-2-en-1-one] was “+ (+ indicates binding activity up to 10%)”; that for `C=CC(=O)N1CC(c2nc3ccc(-c4cc(O)cc5ccccc45)cc3c(=O)n2CCCN(C)C)C1` [Compound 4, 2-(1-acryloylazetidin-3-yl)-3-(3-(dimethylamino)propyl)-6-(3-hydroxynaphthalen-1-yl)quinazolin-4(3H)-one] was “+++ (+++ indicates binding activity greater than 50%)”; that for `C=CC(=O)N1CC(c2nc3ccc(-c4c(C)ccc5[nH]ncc45)cc3c(=O)n2C)C1` [Compound 3, 2-(1-acryloylazetidin-3-yl)-3-methyl-6-(5-methyl-1H-indazol-4-yl)quinazolin-4(3H)-one] was “++ (++ indicates binding activity from 10 to 50%)”.
Consider `C=CC(=O)N1CC(c2nc3ccc(-c4cc(O)cc5ccccc45)cc3c(=O)n2C)C1` [Compound 2, 2-(1-acryloylazetidin-3-yl)-6-(3-hydroxynaphthalen-1-yl)-3-methylquinazolin-4(3H)-one], for which the Binding % entry was “+++ (+++ indicates binding activity greater than 50%)”.
For the compound `C=CC(=O)N1CC(c2nc3ccc(-c4cccc5[nH]nc(C)c45)cc3c(=O)n2CCCN(C)C)C1` [Compound 7, 2-(1-acryloylazetidin-3-yl)-3-(3-(dimeth-ylamino)propyl)-6-(3-methyl-1H-indazol-4-yl)quinazolin-4(3H)-one], the Binding % entry is reported as “+ (+ indicates binding activity up to 10%)”.
As for `C=CC(=O)N1CC(c2nc(N3CC(N(C)C)C3)c3cc(-c4c(C)ccc5[nH]ncc45)ccc3n2)C1` [Compound 32, 1-(3-(4-(3-(dimethylamino)aze-tidin-1-yl)-6-(5-methyl-1H-indazol-4-yl)quinazolin-2-yl)azetidin-1-yl)prop-2-en-1-one], the Binding % entry is on record as “+ (+ indicates binding activity up to 10%)”.

For the origin of these results see patent US11136308B2, “Substituted quinazoline and quinazolinone compounds and methods of use thereof” (Araxes Pharma LLC, priority 2017, dated 2021).
